The values below are quoted from earlier work in patent publication US8470873B2, “Vitamin E succinate stabilized pharmaceutical compositions, methods for the preparation and the use thereof” (Mast Therapeutics, Inc., priority 2006, dated 2013).

For data set [1] the following is noted: hydrolysis.

Take `CC(=O)O[C@@]12CO[C@@H]1C[C@H](O)[C@@]1(C)C(=O)[C@H](O)C3=C(C)[C@@H](OC(=O)[C@H](O)[C@@H](NC(=O)OC(C)(C)C)c4ccccc4)C[C@@](O)([C@@H](OC(=O)c4ccccc4)[C@H]21)C3(C)C` [Docetaxel, (2R,3S)-N-carboxy-3-phenylisoserine,N-tert-butyl ester, 13-ester with 5β-20-epoxy-1,2α-,4,7β,10β,13α-hexahydroxytax-11-en-9-one 4-acetate 2-benzoate, trihydrate]: in data set [1], the “stability in the presence of water” value is given as “very unstable”.

Take `CC(=O)O[C@H]1C(=O)[C@@]2(C)[C@H]([C@H](OC(=O)c3ccccc3)[C@]3(O)C[C@H](OC(=O)[C@H](O)[C@@H](NC(=O)c4ccccc4)c4ccccc4)C(C)=C1C3(C)C)[C@]1(OC(C)=O)CO[C@@H]1C[C@@H]2O` [paclitaxel]: the solubility in water entry was “insoluble”.
